Patent publication US10077288B2, “Hydroxystatin derivatives for the treatment of arthrosis” (Merck Patent GmbH, priority 2012, dated 2018)
*1 amine or outer side, *2 acyl side, *3 side chain or, on linkers, in order; H or OH if unused. Where a SMILES comes first, the peptide text is derived from it. [ ]: non-standard residue; d: D form. The star is where a group is joined. Ahppa(3S,4S) = O=C(C[C@H](O)[C@H](Cc1ccccc1)N[*:1])[*:2]; PhAc = O=C(Cc1ccccc1)*; OBn = c1ccc(CO*)cc1

Target: T1, cathepsin D isolated from the human liver (Homo sapiens, UniProt P07339)
T1 construct: cathepsin D isolated from the human liver (Sigma-Aldrich); purchased Sigma-Aldrich; host or cells: human liver (tissue-derived, not recombinant)
T1 sequence (P07339 65-161 limits assumed): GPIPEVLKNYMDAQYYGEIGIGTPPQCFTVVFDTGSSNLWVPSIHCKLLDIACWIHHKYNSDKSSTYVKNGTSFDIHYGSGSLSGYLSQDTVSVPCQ
T1 sequence (P07339 169-412 limits assumed): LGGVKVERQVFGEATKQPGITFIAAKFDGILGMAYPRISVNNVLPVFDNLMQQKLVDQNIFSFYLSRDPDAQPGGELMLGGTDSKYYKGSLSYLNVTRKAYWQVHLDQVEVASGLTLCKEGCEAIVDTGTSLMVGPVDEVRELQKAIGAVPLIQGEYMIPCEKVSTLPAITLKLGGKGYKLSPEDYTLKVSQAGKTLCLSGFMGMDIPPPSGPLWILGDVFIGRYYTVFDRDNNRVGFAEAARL
Assay: In-vitro fluorescence assay for identification of cathepsin D inhibitors
Format: biochemical
Conditions: human liver cathepsin D 1.4 nM, pH 5.5; read-out: CatD assay IC50-(M)
Description: EXAMPLE 4: IN-VITRO FLUORESCENCE ASSAY FOR IDENTIFICATION OF CATHEPSIN D INHIBITORS
In order to identify modulators of cathepsin D activity, a continuous enzymatic test was carried out with a synthetic peptide which carries a fluorescent group (MCA=(7-methoxycoumarin-4-yl)acetyl) which is quenched by energy transfer from a Dpn (2,4 dinitrophenyl) group on the same molecule, in Greiner 384-well nb microtitre plates. Cleavage of the peptidic substrate by cathepsin D causes an increase in the fluorescence intensity. In order to determine the efficacy of substances, the time-dependent increase in the fluorescence intensity in the presence of the substance was compared with the time-dependent increase in fluorescence in the absence of substances. The reference substance used was pepstatin A (Sigma-Aldrich). The substrate used was MCA-GKPILFFRLK(Dnp)d-R—NH2 (Enzo Life Sciences, Lörrach). The enzyme employed was cathepsin D isolated from the human liver (Sigma-Aldrich) in a final concentration of 1.4 nM. The test was carried out in 100 mM sodium acetate buffer, 1.25% (v/v) of DMSO, 0.25% (w/v) of Chaps, pH 5.5. 2 μl of each substance solution with serially diluted substance concentration were added to in each case 4 μl of cathepsin D solution and incubated at room temperature for 10 min. The reaction was started by addition of 2 μl of substrate solution (final concentration 5 μM). After carrying out a starting-point fluorescence measurement (excitation wavelength 340 nm/emission wavelength 450 nm) using an Envision multilabel reader (Perkin Elmer), the reaction was incubated at room temperature for 60 min. The amount of peptide fragment cleaved off during the reaction time was subsequently measured by determination of the increase in the fluorescence intensity at 450 nm (excitation wavelength 340 nm).

Structure (SMILES)	IC50 [M]
CC[C@H](C)[C@H](NC(=O)C[C@H](O)[C@H](Cc1ccccc1)NC(=O)[C@@H](NC(=O)COc1ccc(C)c(C)c1)C(C)C)C(=O)N[C@H](C(=O)O)C(C)C [Compound 29, (S)-2-[(2S,3S)-2-((3S,4S)-4-{(S)-2-[2-(3,4-dimethylphenoxy)acetylamino]-3-methylbutyrylamino}-3-hydroxy-5-phenylpentanoylamino)-3-methylpentanoylamino]-3-methylbutyric acid]	1e-07
CC[C@H](C)[C@H](NC(=O)C[C@H](O)[C@H](Cc1ccccc1)NC(=O)[C@@H](NC(=O)Cc1cccc2ccccc12)C(C)C)C(=O)N[C@H](C(=O)O)C(C)C [Compound 30, (S)-2-((2S,3S)-2-{(3S,4S)-3-hydroxy-4-[(S)-3-methyl-2-(2-naphthalen-1-ylacetylamino)butyrylamino]-5-phenylpentanoylamino}-3-methylpentanoylamino)-3-methylbutyric acid]	8.5e-08
CC[C@H](C)[C@H](NC(=O)C[C@H](O)[C@H](Cc1ccccc1)NC(=O)[C@@H](NC(=O)c1cccc(-c2ccccc2)c1)C(C)C)C(=O)N[C@H](C(=O)O)C(C)C [Compound 31, (S)-2-[(2S,3S)-2-((3S,4S)-4-{(S)-2-[(biphenyl-3-carbonyl)amino]-3-methylbutyrylamino}-3-hydroxy-5-phenylpentanoylamino)-3-methylpentanoylamino]-3-methylbutyric acid]	1.6e-07
CC[C@H](C)[C@H](NC(=O)C[C@H](O)[C@H](Cc1ccccc1)NC(=O)[C@@H](NC(=O)C(c1ccccc1)c1ccccc1)C(C)C)C(=O)N[C@H](C(=O)OCc1ccccc1)C(C)C [Compound 32, benzyl (S)-2-{(2S,3S)-2-[(3S,4S)-4-((S)-2-diphenylacetylamino-3-methylbutyrylamino)-3-hydroxy-5-phenylpentanoylamino]-3-methylpentanoylamino}-3-methylbutyrate]	3.2e-07
CC[C@H](C)[C@H](NC(=O)C[C@H](O)[C@H](Cc1ccccc1)NC(=O)[C@@H](NC(=O)C(c1ccccc1)c1ccccc1)C(C)C)C(=O)N[C@H](C(=O)O)C(C)C [Compound 33, (S)-2-{(2S,3S)-2-[(3S,4S)-4-((S)-2-diphenylacetylamino-3-methyl-butyrylamino)-3-hydroxy-5-phenylpentanoylamino]-3-methylpentanoylamino}-3-methylbutyric acid]	1.6e-08
CCOc1cccc(CC(=O)N[C@H](C(=O)N[C@@H](Cc2ccccc2)[C@@H](O)CC(=O)N[C@H](C(=O)N[C@H](C(=O)OCc2ccccc2)C(C)C)[C@@H](C)CC)[C@@H](C)CC)c1 [Compound 34, benzly (S)-2-[(2S,3S)-2-((3S,4S)-4-{(S)-2-[2-(3-ethoxyphenyl)-acetylamino]-3-methyl-1-(S)-oxopentylamino}-3-hydroxy-5-phenylpentanoylamino)-3-methylpentanoylamino]-3-methylbutyrate]	2.7e-07
CC[C@H](C)[C@H](NC(=O)C[C@H](O)[C@H](Cc1ccccc1)NC(=O)[C@@H](NC(=O)[C@@H](O)c1ccccc1)C(C)C)C(=O)N[C@H](C(=O)OCc1ccccc1)C(C)C [Compound 35, benzly (S)-2-((2S,3S)-2-{(3S,4S)-3-hydroxy-4-[(S)-2-((S)-2-hydroxy-2-phenylacetylamino)-3-methylbutyrylamino]-5-phenylpentanoylamino}-3-methylpentanoylamino)-3-methylbutyrate]	5.8e-07
CCOc1cccc(CC(=O)N[C@H](C(=O)N[C@@H](Cc2ccccc2)[C@@H](O)CC(=O)N[C@H](C(=O)N[C@H](C(=O)O)C(C)C)[C@@H](C)CC)[C@@H](C)CC)c1 [Compound 36, (S)-2-[(2S,3S)-2-((3S,4S)-3-hydroxy-4-{(S)-methyl-1-(S)-2-[2-(3-ethoxyphenyl)acetylamino]-3-oxopentylamino}-5-phenylpentanoylamino)-3-methylpentanoylamino]-3-methylbutyric acid]	4.3e-08
CC[C@H](C)[C@H](NC(=O)C[C@H](O)[C@H](Cc1ccccc1)NC(=O)[C@@H](NC(=O)[C@@H](O)c1ccccc1)C(C)C)C(=O)N[C@H](C(=O)O)C(C)C [Compound 37, (S)-2-((2S,3S)-2-{(3S,4S)-3-hydroxy-4-[(S)-2-((S)-2-hydroxy-2-phenylacetylamino)-3-methylbutyrylamino]-5-phenylpentanoylamino}-3-methylpentanoylamino)-3-methylbutyric acid]	3.1e-07
CC[C@H](C)[C@H](NC(=O)C[C@H](O)[C@H](Cc1ccccc1)NC(=O)[C@@H](NC(=O)C(CC)(CC)CC)C(C)C)C(=O)N[C@H](C(=O)O)C(C)C [Compound 38, (S)-2-((2S,3S)-2-{(3S,4S)-4-[(S)-2-(2,2-diethylbutyrylamino)-3-methylbutyrylamino]-3-hydroxy-5-phenylpentanoylamino}-3-methylpentanoylamino)-3-methylbutyric acid]	7e-06
CC[C@H](C)[C@H](NC(=O)C[C@H](O)[C@H](Cc1ccccc1)NC(=O)[C@@H](NC(=O)Cc1cccc(OCCNC(=O)OC(C)(C)C)c1)[C@@H](C)CC)C(=O)N[C@H](C(=O)O)C(C)C [Compound 39, (S)-2-{(2S,3S)-2-[(3S,4S)-4-((S)-2-{2-[3-(2-tert-butoxycarbonyl-aminoethoxy)phenyl]acetylamino}-3-methyl-1-(S)-oxopentylamino)-3-hydroxy-5-phenylpentanoylamino]-3-methylpentanoylamino}-3-methylbutyric acid]	3.9e-08
CCCOc1cccc(CC(=O)N[C@H](C(=O)N[C@@H](Cc2ccccc2)[C@@H](O)CC(=O)N[C@H](C(=O)N[C@H](C(=O)O)C(C)C)[C@@H](C)CC)[C@@H](C)CC)c1 [Compound 40, (S)-2-[(2S,3S)-2-((3S,4S)-3-hydroxy-4-{(2S,3S)-3-methyl-2-[2-(3-propoxyphenyl)acetylamino]pentanoylamino}-5-phenylpentanoylamino)-3-methylpentanoylamino]-3-methylbutyric acid]	1.7e-08
CC[C@H](C)[C@H](NC(=O)C[C@H](O)[C@H](Cc1ccccc1)NC(=O)[C@@H](NC(=O)Cc1cccc(OCCN)c1)[C@@H](C)CC)C(=O)N[C@H](C(=O)O)C(C)C [Compound 41, (S)-2-{(2S,3S)-2-[(3S,4S)-4-((S)-2-{2-[3-(2-aminoethoxy)phenyl]-acetylamino}-3-methyl-1-(S)-oxopentylamino)-3-hydroxy-5-phenylpentanoylamino]-3-methylpentanoylamino}-3-methylbutyric acid]	4.8e-07
CCC(CC)NC(=O)[C@@H](NC(=O)C[C@H](O)[C@H](Cc1ccccc1)NC(=O)[C@@H](NC(=O)[C@H](CC(C)C)NC(=O)CC(C)C)C(C)C)[C@@H](C)CC [Compound 42, N-[(1S,2S)-1-(1-ethylpropylcarbamoyl)-2-methylbutyl]-(2S,5S)-3-hydroxy-4-{(S)-3-methyl-2-[(S)-4-methyl-2-(3-methylbutyrylamino)-pentanoylamino]butyrylamino}-5-phenylpentanamide]	1.3e-09
CCC(CC)NC(=O)[C@@H](NC(=O)C[C@H](O)[C@H](Cc1ccccc1)NC(=O)[C@@H](NC(=O)[C@H](CC(C)C)NC(=O)Cc1ccccc1)C(C)C)[C@@H](C)CC [Compound 43, N-[(1S,2S)-1-(1-ethylpropylcarbamoyl)-2-methylbutyl]-(2S,5S)-3-hydroxy-4-[(S)-3-methyl-2-((S)-4-methyl-2-phenylacetylaminopentanoylamino)-1-oxobutylamino]-5-phenylpentanamide]	3.5e-09
CC[C@H](C)[C@H](NC(=O)C[C@H](O)[C@H](Cc1ccccc1)NC(=O)[C@@H](NC(=O)[C@H](CC(C)C)NC(=O)Cc1ccccc1)C(C)C)C(=O)N[C@H](C(=O)OCc1ccccc1)C(C)C [Compound 44, benzyl (S)-2-((2S,3S)-2-{(3S,4S)-3-hydroxy-4-[(S)-3-methyl-2-((S)-4-methyl-2-phenylacetylaminopentanoylamino)butyrylamino]-5-phenylpentanoylamino}-3-methylpentanoylamino)-3-methylbutyrate] (PhAc-LV[Ahppa(3S,4S)]IV-OBn)	2.1e-09
CC[C@H](C)[C@H](NC(=O)C[C@H](O)[C@H](Cc1ccccc1)NC(=O)[C@@H](NC(=O)[C@H](CC(C)C)NC(=O)Cc1ccccc1)C(C)C)C(=O)N[C@H](C(=O)O)C(C)C [Compound 45, (S)-2-((2S,3S)-2-{(3S,4S)-3-hydroxy-4-[(S)-3-methyl-2-((S)-4-methyl-2-phenylacetylaminopentanoylamino)butyrylamino]-5-phenylpentanoylamino}-3-methylpentanoylamino)-3-methylbutyric acid] (PhAc-LV[Ahppa(3S,4S)]IV-OH)	3.5e-10
